Test results reported in patent US6500613B1, “Pneumococcal surface proteins and uses thereof” (priority 1995, dated 2002).
Where two headings read alike, the source gives them in different places.

Experiments:
pspA = assay: Amplification of pspA by PCR with oligonucleotides as 5' primers and 3' primer LSM2 (Example 11); set-up: species or system Streptococcus pneumoniae; conditions: 5′ primer in combination with 3′-primer LSM2, 14 strains
Experimental: These oligonucleotides were synthesized by Oligos, Etc.
PCR was done with an MJ Research, Inc., Programmable Thermal Cycler (Watertown, Mass.), using approximately 10 ng of genomic pneumococcal DNA as template with designated 5′ and 3′ primer pairs. The sample was brought to a total volume of 50 μl containing a final concentration of 50 mM KCl, 10 mM Tris-HCl (pH 8.3), 1.5 mM MgCl2, 0.01% gelatin, 0.5 μM of each primer, 200 μM of each deoxynucleoside triphosphate, and 2.5 U of Taq DNA polymerase. The samples were denatured at 94° C. for 2 minutes and subjected to 10 cycles consisting of: 1 min at 94° C., 2 min at 50° C., and 3 min at 72° C., followed by 20 cycles of: 1 min at 94° C., 2 min at 60° C., and 3 min at 72° C. After 30 total cycles, the samples were held at 72° C. for an additional 5 min prior to cooling to 4° C. The amplicons were then analyzed by agarose gel electrophoresis.

[1] = tested on: S. pneumoniae isolates MC25, MC26, MC27, MC28; format: cell-based, Streptococcus pneumoniae

Substance | Amplified/Tested (pspA) | Percent Amplified (pspA) | Penicillin MIC ([1]; isolate MC25) | Penicillin MIC ([1]; isolate MC26) | Penicillin MIC ([1]; isolate MC27) | Penicillin MIC ([1]; isolate MC28)
LSM111 (DNA CCGGATCCAGCTCCTGCACCAAAAC; chemistry not given here) | 14/14 | 100% | – | – | – | –
Penicillin | – | – | 1 µg/mL | 4 µg/mL | 1 µg/mL | 2 µg/mL
